Results as given in ChEMBL document CHEMBL1141791, “A cytotoxic sesquiterpene alkaloid from the South China Sea gorgonian Subergorgia suberosa” (J Nat Prod, 2005).
Values after ≈ are worked out from the molar mass of the structure shown.

Tested on: MDA-MB-231
Assay: Cytotoxicity against human MDA-MB-231 cells by MTT method
Assay type: functional, cell-based

Structure (SMILES): C[C@H]1CC[C@H]2[C@H]3CC(=O)[C@H](Cn4c(O)nc5c(O)ncnc54)[C@]31CC2(C)C
- IC50: 8.87 µg/mL (≈ 23.9 µM)
